Our source for the EC50 values is patent publication US8563714B2, “Bridged spiro [2.4] heptane derivatives as ALX receptor and/or FPRL2 agonists” (Actelion Pharmaceuticals Ltd., priority 2009, dated 2013).

In one assay the target is T1, human FPRL2 (Homo sapiens, UniProt P25089).
T1 construct: expressed in transfected cells; host or cells: HEK293 (HEK293-hFPRL2-Gα16)
T1 sequence (P25089 1-353): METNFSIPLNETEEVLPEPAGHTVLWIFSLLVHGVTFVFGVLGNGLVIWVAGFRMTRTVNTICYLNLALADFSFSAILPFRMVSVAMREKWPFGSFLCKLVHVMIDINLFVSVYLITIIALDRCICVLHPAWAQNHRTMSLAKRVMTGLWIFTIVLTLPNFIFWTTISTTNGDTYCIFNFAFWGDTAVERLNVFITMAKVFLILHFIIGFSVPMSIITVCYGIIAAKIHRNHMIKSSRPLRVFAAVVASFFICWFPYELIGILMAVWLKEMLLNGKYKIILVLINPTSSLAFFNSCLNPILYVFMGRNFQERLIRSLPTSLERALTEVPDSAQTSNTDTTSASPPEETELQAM
In words: Intracellular calcium measurements (FLIPR), agonistic activity in HEK293-hFPRL2-Gα16 cells. It counts as cell-based. The following applies: Fluo-4 calcium FLIPR, normalized to GLY14-Humanin 100 nM. The method, boiled down:
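Peak values after baseline subtraction are expressed relative to 100 nM Gly14-Humanin; compounds diluted in assay buffer from 10 mM DMSO stocks.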
In general terms: Calcium flux is commonly read through the fluorescence of an indicator in the cells.

In a further assay the target is T2, human ALX receptor (Homo sapiens, UniProt P25090).
T2 construct: expressed in transfected cells; host or cells: HEK293 (HEK293-hALXR-Gα16)
T2 sequence (P25090 1-351): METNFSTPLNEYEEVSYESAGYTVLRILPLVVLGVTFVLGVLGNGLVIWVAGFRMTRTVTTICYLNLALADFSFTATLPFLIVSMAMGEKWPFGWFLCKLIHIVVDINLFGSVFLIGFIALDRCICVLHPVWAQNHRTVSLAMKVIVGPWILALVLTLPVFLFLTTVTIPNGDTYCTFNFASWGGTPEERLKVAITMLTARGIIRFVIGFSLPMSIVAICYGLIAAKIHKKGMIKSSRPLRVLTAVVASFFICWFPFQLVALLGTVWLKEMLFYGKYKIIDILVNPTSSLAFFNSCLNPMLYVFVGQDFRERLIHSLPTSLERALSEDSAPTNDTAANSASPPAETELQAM
In words: Intracellular calcium measurements (FLIPR), agonistic activity in HEK293-hALXR-Gα16 cells. Format: cell-based. As to conditions: Fluo-4 calcium FLIPR, normalized to WKYMVm 10 nM. The method, boiled down:
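Agonist-induced calcium flux was recorded by FLIPR (488/540 nm) in HEK293-hALXR-Gα16 cells pre-loaded with Fluo-4 AM (1 μM, 60 min, 37°C). Peak signal above baseline, after subtracting buffer addition, was expressed relative to WKYMVm at 10 nM final.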

One may read the EC50 as the concentration needed to bring the measured effect to its halfway point.

For `O=C(NC[C@H]1[C@H](C(=O)Nc2ccc(Br)cc2)[C@@H]2C=C[C@H]1C21CC1)C1CCCC1` (racemic) [Example 179, (5R*)—N^5-(4-Bromo-phenyl)-(6R*)-6-{[(cyclopentyl-carbonyl)-amino]-methyl}-(4S*,7R*)-[4,7-ethenylene-spiro[2.4]heptane]-5-carboxamide], the concentration giving a half-maximal response (EC50) on human FPRL2 was 1380 nM; at human ALX receptor, 200 nM.

On to `O=C(NC1CCNCC1)[C@H]1[C@H](C(=O)Nc2ccc(Br)cc2)[C@@H]2C=C[C@H]1C21CC1` (racemic) [Example 3, (5R*)—N^5-(4-Bromophenyl)-(6R*)—N^6-(piperidin-4-yl)-(4S*,7R*)-[4,7-ethenylene-spiro[2.4]heptane]-5,6-dicarboxamide], for which the EC50 on human FPRL2 amounted to 2000 nM; at human ALX receptor it was 0.2 nM.

For the compound `CNC(=O)C(NC(=O)C1C(C(=O)Nc2ccc(Br)cc2)C2C=CC1C21CC1)C(C)(C)C` [Example 96, (5R*)—N^5-(4-Bromophenyl)-(6R*)—N^6—[(2S)-3,3-dimethyl-1-(methylamino)-1-oxobutan-2-yl]-(4S*,7R*)-[4,7-ethenylene-spiro[2.4]heptane]-5,6-dicarboxamide], the half-maximal effective concentration (EC50) was 8050 nM at human FPRL2 and 373 nM on human ALX receptor.

As for `O=C(NCCCCN1CCCC1)[C@H]1[C@H](C(=O)Nc2nc(C(F)(F)F)cs2)[C@@H]2C=C[C@H]1C21CC1` (racemic) [Example 345, (5R*)—N^5-(4-Trifluoromethyl-thiazol-2-yl)-(6R*)—N^6-(4-pyrrolidino-butyl)-(4S*,7R*)-[4,7-ethenylene-spiro[2.4]heptane]-5,6-dicarboxamide], the concentration giving a half-maximal response (EC50) at human FPRL2 is 734 nM; on human ALX receptor it was above 25000 nM.

For `COCCN(CCOC)C(=O)[C@H]1[C@H](C(=O)Nc2ccc(Br)cc2)[C@@H]2C=C[C@H]1C21CC1` [Example 63, (5R)—N^5-(4-Bromophenyl)-(6R)—N^6,N^6-bis-(2-methoxy-ethyl)-(4S,7R)-[4,7-ethenylene-spiro[2.4]heptane]-5,6-dicarboxamide], the figures for the concentration giving a half-maximal response (EC50) at human FPRL2 and on human ALX receptor were 3950 nM and 24 nM, respectively.

`COc1ccc(CCNC(=O)[C@H]2[C@H](C(=O)NCCCCN3CCCC3)[C@H]3C=C[C@@H]2C32CC2)cc1` (racemic) [Example 378, (5R*)—N^5-(2-(4-Methoxyphenyl)ethyl)-(6R*)—N^6-(4-pyrrolidino-butyl)-(4S*,7R*)-[4,7-ethenylene-spiro[2.4]heptane]-5,6-dicarboxamide]: the concentration for a half-maximal effect (EC50) on human FPRL2 came to 74 nM; on human ALX receptor it was 8610 nM.

As to `NCCCCNC(=O)[C@H]1[C@H](C(=O)Nc2ccc(Br)cc2)[C@H]2C=C[C@@H]1C21CC1` (relative stereo) [Example 339, (5R*)—N^5-(4-Aminobutyl)-(6R*)—N^6-(4-bromophenyl)-(4S*,7R*)-[4,7-ethenylene-spiro[2.4]heptane]-5,6-dicarboxamide], the concentration for a half-maximal effect (EC50) at human FPRL2 stood at 1480 nM; on human ALX receptor it was 19 nM.

For `Cc1ccc(C)c(CNC(=O)[C@H]2[C@H](C(=O)NCCCCN3CCCC3)[C@H]3C=C[C@@H]2C32CC2)c1` (racemic) [Example 368, (5R*)—N^5-(2,5-Dimethylphenyl-methyl)-(6R*)—N^6-(4-pyrrolidino-butyl)-(4S*,7R*)-[4,7-ethenylene-spiro[2.4]heptane]-5,6-dicarboxamide], the EC50 on human FPRL2 was found to be 255 nM; on human ALX receptor, 11100 nM.

With `COCCNC(=O)[C@H]1[C@H](C(=O)Nc2ncc(Br)s2)[C@@H]2C=C[C@H]1C21CC1` (racemic) [Example 276, (5R*)—N^5-(5-Bromothiazol-2-yl)-(6R*)—N^6-(2-methoxy-ethyl)-(4S*,7R*)-[4,7-ethenylene-spiro[2.4]heptane]-5,6-dicarboxamide], the EC50 on human FPRL2 is above 25000 nM; at human ALX receptor, 44 nM.

On to `CN(C)CCCNC(=O)[C@H]1[C@H](C(=O)Nc2ccc(Br)cc2)[C@@H]2C=C[C@H]1C21CC1` (racemic) [Example 52, (5R*)—N^5-(4-Bromophenyl)-(6R*)—N^6-(3-dimethyl-amino-propyl)-(4S*,7R*)-[4,7-ethenylene-spiro[2.4]heptane]-5,6-dicarboxamide], for which the half-maximal effective concentration (EC50) came to 6360 nM on human FPRL2 and 9.6 nM on human ALX receptor.

For the compound `CC1CCC(NC(=O)C2C(C(=O)NCCCCN3CCCC3)C3C=CC2C32CC2)CC1` (mixture of isomers) [Example 126, (5R*)—N^5-(4-Methyl-cyclohex-1-yl)-(6R*)—N^6-(4-pyrrolidin-1-yl-butyl)-(4S*,7R*)-[4,7-ethenylene-spiro[2.4]heptane]-5,6-dicarboxamide], the EC50 is 613 nM on human FPRL2 and 71 nM at human ALX receptor.

On to `O=C(NCCN1CCNC1=O)[C@H]1[C@H](C(=O)Nc2ccc(Br)cc2)[C@@H]2CC[C@H]1C21CC1` (racemic) [Example 105, (5R*)—N^5-(4-Bromophenyl)-(6R*)—N^6-[(2-imidazolidin-2-on-1-yl)-ethyl]-(4S*,7R*)-[4,7-ethylene-spiro[2.4]heptane]-5,6-dicarboxamide], for which the results for the concentration for a half-maximal effect (EC50) at human FPRL2 and on human ALX receptor were 3730 nM and 2.4 nM, respectively.

Turning to `O=C(NCC1(O)CCCCC1)[C@H]1[C@H](C(=O)Nc2ncc(Br)s2)[C@@H]2CC[C@H]1C21CC1` [Example 409, (5R)—N^5-(5-Bromothiazol-2-yl)-(6R)—N^6-[(1-hydroxy-cyclohexyl)methyl]-(4S,7R)-[4,7-ethylene-spiro[2.4]heptane]-5,6-dicarboxamide], the values for the half-maximal effective concentration (EC50) on human FPRL2 and on human ALX receptor were 9190 nM and 129 nM, respectively.

`CC(C)(C)OC(=O)NCc1ccc(CNC(=O)[C@H]2[C@H](C(=O)Nc3ccc(Br)cc3)[C@@H]3C=C[C@H]2C32CC2)cc1` (racemic) [Example 97, (5R*)—N^5-(4-Bromophenyl)-(6R*)—N^6-[(4-N-tert-butoxycarbonyl-aminomethyl-phenyl)-methyl]-(4S*,7R*)-[4,7-ethenylene-spiro[2.4]heptane]-5,6-dicarboxamide]: the EC50 at human FPRL2 worked out at 1430 nM; at human ALX receptor, 391 nM.

As to `CC(C)(C)OC(=O)NCCCCCNC(=O)C1C(C(=O)Nc2ncc(Br)s2)C2CCC1C21CC1` [Example 333, (5R)—N^5-(5-Bromo-thiazol-2-yl)-(6R)—N^6-(5-tert-butoxycarbonyl-amino-pentyl)-(4S,7R)-[4,7-ethylene-spiro[2.4]heptane]-5,6-dicarboxamide], the EC50 worked out at 1240 nM on human FPRL2 and 519 nM on human ALX receptor.

With `O=C(NCCCCN1CCCC1)[C@H]1[C@H](C(=O)NCc2cnc(Br)s2)[C@@H]2C=C[C@H]1C21CC1` [Example 312, (5R)—N^5-(2-Bromo-thiazol-5-yl-methyl)-(6R)—N^6-(4-pyrrolidino-butyl)-(4S,7R)-[4,7-ethenylene-spiro[2.4]heptane]-5,6-dicarboxamide], the concentration for a half-maximal effect (EC50) on human FPRL2 amounted to 208 nM; on human ALX receptor, 213 nM.

Turning to `CCSCCNC(=O)[C@H]1[C@H](C(=O)Nc2ccc(Br)cc2)[C@@H]2C=C[C@H]1C21CC1` (racemic) [Example 24, (5R*)—N^5-(4-Bromophenyl)-(6R*)—N^6-(2-ethylsulfanyl-ethyl)-(4S*,7R*)-[4,7-ethenylene-spiro[2.4]heptane]-5,6-dicarboxamide], the figures for the EC50 on human FPRL2 and at human ALX receptor were 4120 nM and 3.7 nM, respectively.

In the case of `NCC1CCN(C(=O)C2C(C(=O)Nc3ncc(Br)s3)C3CCC2C32CC2)CC1` [Example 336, (5R)—N^5-(5-Bromo-thiazol-2-yl)-(6R)—N^6,N^6-(3-(aminomethyl)pentane-1,5-diyl)-(4S,7R)-[4,7-ethylene-spiro[2.4]heptane]-5,6-dicarboxamide], the EC50 is 1490 nM on human FPRL2 and 6.2 nM at human ALX receptor.

Consider `O=C(NCCCCN1CCCC1)[C@H]1[C@H](C(=O)Nc2ncc([N+](=O)[O-])s2)[C@@H]2C=C[C@H]1C21CC1` (racemic) [Example 128, (5R*)—N^5-(5-Nitro-thiazol-2-yl)-(6R*)—N^6-(4-pyrrolidin-1-yl-butyl)-(4S*,7R*)-[4,7-ethenylene-spiro[2.4]heptane]-5,6-dicarboxamide], for which the EC50 on human FPRL2 worked out at 3440 nM; at human ALX receptor it was 120 nM.

On to `O=C(NCCCCN1CCCC1)[C@H]1[C@H](C(=O)NCc2ccc(F)c(C(F)(F)F)c2)[C@@H]2C=C[C@H]1C21CC1` (racemic) [Example 366, (5R*)—N^5-(4-Fluoro-3-trifluoromethylphenyl-methyl)-(6R*)—N^6-(4-pyrrolidino-butyl)-(4S*,7R*)-[4,7-ethenylene-spiro[2.4]heptane]-5,6-dicarboxamide], for which the 50% effective concentration (EC50) at human FPRL2 amounted to 366 nM; on human ALX receptor, 10000 nM.
